In patent US11571480B2, “Multi-ligand drug conjugates and uses thereof” (priority 2015, dated 2023):
Square brackets hold non-standard residues; d marks the D form. Peptide text beside a SMILES is read from it. * marks the point of attachment. Dolaproine = CO[C@@H]([C@@H]1CCCN1)[C@@H](C)C(=O)O; Dil = CC[C@H](C)[C@H](NC)[C@@H](CC(=O)O)OC; X1 = C[C@@H](N*)[C@@H](O)c1ccccc1; NMeV = CN[C@H](C(=O)O)C(C)C

Key:
[1] = test system: human lung cancer cell H1299; assay: Cytotoxicity test of conjugate LDC10H; format: cell-based; conditions: H1299, incubated 15-30 min, then 2-3 days
Experimental: (§1) Culture medium: RPMI 1640 Medium, no folic acid
(§2) 1) human lung cancer cell H1299, ovarian cancer cell SKOV3, breast cancer cell line HCC1954, and human lung cancer cell H460 were incubated at 37° C., 5% CO2 in RPMI 1640 medium containing 10% fetal bovine serum, the cells were passaged every 2-3 days.
(§3) 2) human lung cancer cell H1299, ovarian cancer cell SKOV3, breast cancer cell line HCC1954, and human lung cancer cell H460 were plated at 1×10^3 cells per well (96-well plate) and incubated for 8-12 h at 37° C., 5% CO2.
(§4) 3) Stock solutions of LDC conjugates or control were prepared in PBS solution. 100 μL/well of serially diluted LDC conjugates or control was added to the cells in the plate and incubated for 15-30 min at 37° C., 5% CO2. The culture medium in the wells was then removed by aspiration and the cells were incubated in fresh culture medium without conjugates (150 μL/well) for 2-3 days at 37° C., 5% CO2.
(§5) 4) CellTiter 96® Aqueous One Solution Cell Proliferation Assay (Promega) was added to each well to measure the amount of […] cells, and the plate was incubated in an incubator for 1 h at 37° C., 5% CO2.
(§6) 5) the plate was read at 490 nm on a microplate reader, and the cell survivals were compared for cells with or without the treatment of LDC conjugates. The LDC drug concentrations that are required for 50% cell death (IC50 values) were determined.

[2] = test system: human lung cancer cell H460; assay: Cytotoxicity test of conjugate LDC10H; format: cell-based; conditions: H460, incubated 15-30 min, then 2-3 days
Experimental: as §1, §2, §3, §4, §5, §6

[3] = test system: human gastric cancer cell line GTL-16; assay: Cytotoxicity test of conjugate LDC13B; format: cell-based; conditions: GTL-16, incubated 15-30 min, then 2-3 days
Experimental: as §1
(§7) 1) human nasopharyngeal cancer cell line KB, human colon carcinoma HCT-116, human prostatic cancer cell PC-3, human gastric cancer cell line GTL-16, human endometrial cancer cell HEC-1A, and human gastric cancer cell N87 were incubated at 37° C., 5% CO2 in RPMI 1640 medium containing 10% fetal bovine serum, the cells were passaged every 2-3 days.
(§8) 2) human nasopharyngeal cancer cell line KB, human colon carcinoma HCT-116, human prostatic cancer cell PC-3, human gastric cancer cell line GTL-16, human endometrial cancer cell HEC-1A, and human gastric cancer cell N87 were plated at 1×10^3 cells per well (96-well plate) and incubated for 8-12 h at 37° C., 5% CO2.
as §4, §5, §6

[4] = test system: human endometrial cancer cell HEC-1A; assay: Cytotoxicity test of conjugate LDC13B; format: cell-based; conditions: incubated 15-30 min, then 2-3 days
Experimental: as §1, §7, §8, §4, §5, §6

[5] = test system: human colon carcinoma HCT-116; assay: Cytotoxicity test of conjugate LDC13B; format: cell-based; conditions: HCT-116, incubated 15-30 min, then 2-3 days
Experimental: as §1, §7, §8, §4, §5, §6

[6] = test system: human nasopharyngeal cancer cell line KB; assay: Cytotoxicity test of conjugate LDC13B; format: cell-based; conditions: KB, incubated 15-30 min, then 2-3 days
Experimental: as §1, §7, §8, §4, §5, §6

[7] = test system: human gastric cancer cell N87; assay: Cytotoxicity test of conjugate LDC13B; format: cell-based; conditions: N87, incubated 15-30 min, then 2-3 days
Experimental: as §1, §7, §8, §4, §5, §6

[8] = test system: human prostatic cancer cell PC-3; assay: Cytotoxicity test of conjugate LDC13B; format: cell-based; conditions: PC-3, incubated 15-30 min, then 2-3 days
Experimental: as §1, §7, §8, §4, §5, §6

[9] = test system: human nasopharyngeal cancer cell line KB; assay: Cytotoxicity test of conjugate LDC10BR; format: cell-based; conditions: incubated 15-30 min, then 2-3 days
Experimental: as §1
(§9) 1) human nasopharyngeal cancer cell line KB, melanoma cell line A375, and human lung cancer cell H460 were incubated at 37° C., 5% CO2 in RPMI 1640 medium containing 10% fetal bovine serum, the cells were passaged every 2-3 days.
(§10) 2) human nasopharyngeal cancer cell line KB, melanoma cell line A375, and human lung cancer cell H460 were plated at 1×10^3 cells per well (96-well plate) and incubated for 8-12 h at 37° C., 5% CO2.
as §4, §5, §6

melanoma cell line A375 = assay: Cytotoxicity test of conjugate LDC10BR; format: cell-based; conditions: A375, incubated 15-30 min, then 2-3 days
Experimental: as §1, §9, §10, §4, §5, §6

[10] = test system: human lung cancer cell H460; assay: Cytotoxicity test of conjugate LDC10BR; format: cell-based; conditions: H460, incubated 15-30 min, then 2-3 days
Experimental: as §1, §9, §10, §4, §5, §6

[11] = test system: ovarian cancer cell SKOV3; assay: Cytotoxicity test of conjugate LDC10B; format: cell-based, human; conditions: SKOV3, Incubation Time 30 min
Experimental: as §1
1) human nasopharyngeal cancer cell line KB, melanoma cell line A375, human lung cancer cell H1299, chronic myeloid leukemia cell line K562, human lung cancer cell H460, ovarian cancer cell SKOV3, breast cancer cell line HCC1954, human gastric cancer cell N87, and human breast cancer cell SK-BR-3 were incubated at 37° C., 5% CO2 in RPMI 1640 medium containing 10% fetal bovine serum, the cells were passaged every 2-3 days.
2) human nasopharyngeal cancer cell line KB, melanoma cell line A375, human lung cancer cell H1299, chronic myeloid leukemia cell line K562, human lung cancer cell H460, ovarian cancer cell SKOV3, breast cancer cell line HCC1954, human gastric cancer cell N87, and human breast cancer cell SK-BR-3 were plated at 1×10^3 cells per well (96-well plate) and incubated for 8-12 h at 37° C., 5% CO2.
3) Stock solutions of LDC conjugates or controls were prepared in PBS solution. 100 μL/well of serially diluted LDC conjugates or controls was added to the test cells in the plates and incubated for 15-30 min at 37° C., 5% CO2. The culture medium in the wells was then removed by aspiration and the test cells were incubated in fresh culture medium without conjugates (150 μL/well) for 2-3 days at 37° C., 5% CO2.
4) CellTiter 96® Aqueous One Solution Cell Proliferation Assay (Promega) was added to each well to measure the amount of […] cells, and each plate was incubated in an incubator for 1 h at 37° C., 5% CO2.
5) Each plate was read at 490 nm on a microplate reader, and the cell survivals were compared for test cells with or without the treatment of LDC conjugates. The LDC drug concentrations that are required for 50% cell death (IC50 values) were determined.

[12] = test system: human gastric cancer cell line GTL-16; assay: Cytotoxicity test of conjugate LDC12B; format: cell-based; conditions: GTL-16, incubated 15-30 min, then 2-3 days
Experimental: as §1
(§11) 1) human endometrial cancer cell HEC-1A, human gastric cancer cell line GTL-16, human colon carcinoma HCT-116, human neuroblastoma cell line SH-SY5Y were incubated at 37° C., 5% CO2 in RPMI 1640 medium containing 10% fetal bovine serum, the cells were passaged every 2-3 days.
(§12) 2) human endometrial cancer cell HEC-1A, human gastric cancer cell line GTL-16, Human colon carcinoma HCT-116, human neuroblastoma cell line SH-SY5Y were plated at 1×10^3 cells per well (96-well plate) and incubated for 8-12 h at 37° C., 5% CO2.
as §4, §5, §6

[13] = test system: human endometrial cancer cell HEC-1A; assay: Cytotoxicity test of conjugate LDC12B; format: cell-based; conditions: incubated 15-30 min, then 2-3 days
Experimental: as §1, §11, §12, §4, §5, §6

[14] = test system: human colon carcinoma HCT-116; assay: Cytotoxicity test of conjugate LDC12B; format: cell-based; conditions: HCT-116, incubated 15-30 min, then 2-3 days
Experimental: as §1, §11, §12, §4, §5, §6

[15] = test system: human neuroblastoma cell line SH-SY5Y; assay: Cytotoxicity test of conjugate LDC12B; format: cell-based; conditions: incubated 15-30 min, then 2-3 days
Experimental: as §1, §11, §12, §4, §5, §6

## CC[C@H](C)[C@@H]([C@@H](CC(=O)N1CCC[C@H]1[C@H](OC)[C@@H](C)C(=O)N[C@H](C)[C@@H](O)c1ccccc1)OC)N(C)C(=O)[C@@H](NC(=O)[C@@H](NC)C(C)C)C(C)C [MMAE] (H-[NMeV]V[Dil][Dolaproine]-X1)
[1]
  IC50: 0.71 nM
[2]
  IC50: 0.56 nM
[3]
  IC50: 6.38 nM
[4]
  IC50: 8.74 nM
[5]
  IC50: 12.7 nM
[6]
  IC50: 28.8 nM
[7]
  IC50: 3.83 nM
[8]
  IC50: 12.8 nM
[9]
  IC50: 20 nM
Melanoma cell line A375
  IC50: 85 nM
[10]
  IC50: 37 nM
[11]
  IC50: 0.62 nM
[12]
  IC50: 6.38 nM
[13]
  IC50: 8.74 nM
[14]
  IC50: 12.7 nM
[15]
  IC50: 24 nM
